Structures are written as SMILES.

One assay deals with IP receptor (Homo sapiens, UniProt P43119). Nature of the assay: IP receptor binding.
Another assay deals with T1, EP1 receptor (Homo sapiens, UniProt P34995).
T1 construct: The full length EP1 receptor is made as disclosed in Funk et al; expressed in transfected cells; membranes
T1 sequence (P34995 1-402): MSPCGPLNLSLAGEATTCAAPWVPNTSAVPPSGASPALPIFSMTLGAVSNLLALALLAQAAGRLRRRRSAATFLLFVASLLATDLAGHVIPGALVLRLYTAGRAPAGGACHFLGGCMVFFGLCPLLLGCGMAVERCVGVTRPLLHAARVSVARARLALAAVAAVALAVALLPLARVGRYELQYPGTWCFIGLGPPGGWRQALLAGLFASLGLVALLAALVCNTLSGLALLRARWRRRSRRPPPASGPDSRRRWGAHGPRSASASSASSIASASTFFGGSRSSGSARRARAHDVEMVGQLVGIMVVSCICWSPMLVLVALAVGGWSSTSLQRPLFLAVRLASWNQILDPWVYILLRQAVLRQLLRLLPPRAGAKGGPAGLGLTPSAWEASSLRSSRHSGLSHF
Put plainly: Assay for binding to prostaglandin E2 receptors (3H-PGE2 displacement), EP1. As to the method: (§1) All operations are performed at 4° C. […] Louis, Mo.), 1 uM pepstatin A peptide, (Sigma, St. Louis, Mo.), 10 uM elastatinal peptide, (Sigma, St. Louis, Mo.), 100 uM antipain peptide, (Sigma, St. Louis, Mo.)]. The cells are lysed by sonification with a Branson Sonifier (Model #250, Branson Ultrasonics Corporation, Danbury, Conn.) in 2 fifteen second bursts. Unlysed cells and debris are removed by centrifugation at 100× g for 10 min. Membranes are then harvested by centrifugation at 45,000× g for 30 minutes. Pelleted membranes are resuspended to 3-10 mg protein per ml, protein concentration being determined of the method of Bradford [Bradford, M., Anal. Biochem., 72, 248 (1976)]. Resuspended membranes are then stored frozen at -80° C. until use. Frozen membranes prepared as above are thawed and diluted to 1 mg protein per ml in Buffer A above. One volume of membrane preparation is combined with 0.05 volume test compound or buffer and one volume of 3 nM ^3H-prostaglandin E2 (#TRK 431, Amersham, Arlington Heights, Ill.) in Buffer A. The mixture (205 μL total volume) is incubated for 1 hour at 25° C. […] To determine the amount of ^3H-prostaglandin bound to the membranes, the dried filters are placed into plastic bags with scintillation fluid and counted in a LKB 1205 Betaplate reader (Wallac, Gaithersburg, Md.). […]

The test system of a further assay is osteopenic, OVX rats. Put plainly: Example One: skeletal effects in osteopenic OVX rats, distal femoral metaphyseal BMC/BMD by DXA. It counts as in vivo, Sprague-Dawley female rats. The settings on record: 10 mg/kg/day subcutaneous injection for 4 weeks. How it is done: Prostaglandin E2 (PGE2) restores bone mass by stimulating both bone formation and bone resorption but in favor of bone formation in ovariectomized (OVX) rat skeleton.
Sprague-Dawley female rats were sham-operated (n=20) or OVX (n=50) at 3 months of age. Five weeks post-surgery, OVX rats were treated (subcutaneous injection) with either vehicle or 3-(3-hydroxy-4-phenyl-butyl)-2-(6-(1 H—tetrazol-5-yl)-hexyl)-cyclopentanone at 10 mg/kg/day for 4 weeks. Distal femoral metaphyseal bone mineral content (BMC) and bone mineral density (BMD) were determined by dual energy x-ray absorptiometry (Hologic QDR-1000/W, Hologic Inc., Waltham, Mass.) according to the methods described by Ke et al., (Droloxifene, a New Estrogen Antagonist/Agonist, Prevents Bone Loss in Ovariectomized Rats, Endocrinology, 136:2435-2441; 1995).

The next assay has as its target T2, DP receptor (Homo sapiens, UniProt Q13258).
T2 sequence (Q13258 1-359): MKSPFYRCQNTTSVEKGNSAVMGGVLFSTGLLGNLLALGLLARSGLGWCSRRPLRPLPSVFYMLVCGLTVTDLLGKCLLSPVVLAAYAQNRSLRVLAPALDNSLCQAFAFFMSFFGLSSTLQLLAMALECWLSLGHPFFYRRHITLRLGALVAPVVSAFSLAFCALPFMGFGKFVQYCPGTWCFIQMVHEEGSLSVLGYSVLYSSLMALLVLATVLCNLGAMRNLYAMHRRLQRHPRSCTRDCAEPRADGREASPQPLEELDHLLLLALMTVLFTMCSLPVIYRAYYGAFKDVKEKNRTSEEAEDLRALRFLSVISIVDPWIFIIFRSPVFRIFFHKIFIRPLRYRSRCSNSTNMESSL
Put plainly: DP receptor binding.

The target in the next assay is T3, EP3 receptor (Homo sapiens, UniProt P43115).
T3 construct: The full length EP3 receptor is made as disclosed in Regan et al; expressed in transfected cells; membranes
T3 sequence (P43115 1-390): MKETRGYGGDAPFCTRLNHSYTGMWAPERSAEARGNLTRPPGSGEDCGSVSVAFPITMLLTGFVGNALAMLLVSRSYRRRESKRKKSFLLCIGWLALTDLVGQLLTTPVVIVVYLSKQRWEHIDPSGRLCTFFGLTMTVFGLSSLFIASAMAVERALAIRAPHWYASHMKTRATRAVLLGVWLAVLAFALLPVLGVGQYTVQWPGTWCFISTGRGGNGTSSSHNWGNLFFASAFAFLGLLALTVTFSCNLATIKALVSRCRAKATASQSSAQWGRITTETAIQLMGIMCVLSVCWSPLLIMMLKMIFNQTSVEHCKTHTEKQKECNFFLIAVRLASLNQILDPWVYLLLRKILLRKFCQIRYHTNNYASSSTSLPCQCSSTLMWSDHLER
Nature of the assay: Assay for binding to prostaglandin E2 receptors (3H-PGE2 displacement), EP3. How it is done: as §1

In the next assay the target is T4, EP2 receptor (Homo sapiens, UniProt P43116).
T4 construct: The full length EP2 receptor is made as disclosed in Regan et al; expressed in transfected cells; membranes
Put plainly: Assay for binding to prostaglandin E2 receptors (3H-PGE2 displacement), EP2. As to the method:
(§2) All operations are performed at 4° C. […] The cells are lysed by sonification with a Branson Sonifier (Model #250, Branson Ultrasonics Corporation, Danbury, Conn.) in 2 fifteen second bursts. Unlysed cells and debris are removed by centrifugation at 100× g for 10 min. Membranes are then harvested by centrifugation at 45,000× g for 30 minutes. Pelleted membranes are resuspended to 3-10 mg protein per ml, protein concentration being determined of the method of Bradford [Bradford, M., Anal. Biochem., 72, 248 (1976)]. Resuspended membranes are then stored frozen at −80° C. until use.
(§3) Frozen membranes prepared as above are thawed and diluted to 1 mg protein per ml in Buffer A above. […] The membranes are then recovered by filtration through type GF/C glass fiber filters (#1205-401, Wallac, Gaithersburg, Md.) using a Tomtec harvester (Model Mach II/96, Tomtec, Orange, Conn.). […] Each sample is then washed 3 times with 3 ml of [50 mM Tris-HCl (pH 7.4), 10 mM MgCl2, 1 mM EDTA]. The filters are then dried by heating in a microwave oven. To determine the amount of ^3H—prostaglandin bound to the membranes, the dried filters are placed into plastic bags with scintillation fluid and counted in a LKB 1205 Betaplate reader (Wallac, Gaithersburg, Md.).
(§4) The full length EP1 receptor is made as disclosed in Funk et al., Journal of Biological Chemistry, 1993, 268, 26767-26772. […]

The target in the next assay is FP receptor (Homo sapiens, UniProt P43088). Nature of the assay: FP receptor binding.
For the next assay, the target named is T5, EP4 receptor (Homo sapiens, UniProt P35408).
T5 construct: The full length EP4 receptor is made as disclosed in Bastien; expressed in transfected cells; membranes
Nature of the assay: Assay for binding to prostaglandin E2 receptors (3H-PGE2 displacement), EP4. As to the method:
as §2, §3, §4

T5 sequence (P35408 whole entry): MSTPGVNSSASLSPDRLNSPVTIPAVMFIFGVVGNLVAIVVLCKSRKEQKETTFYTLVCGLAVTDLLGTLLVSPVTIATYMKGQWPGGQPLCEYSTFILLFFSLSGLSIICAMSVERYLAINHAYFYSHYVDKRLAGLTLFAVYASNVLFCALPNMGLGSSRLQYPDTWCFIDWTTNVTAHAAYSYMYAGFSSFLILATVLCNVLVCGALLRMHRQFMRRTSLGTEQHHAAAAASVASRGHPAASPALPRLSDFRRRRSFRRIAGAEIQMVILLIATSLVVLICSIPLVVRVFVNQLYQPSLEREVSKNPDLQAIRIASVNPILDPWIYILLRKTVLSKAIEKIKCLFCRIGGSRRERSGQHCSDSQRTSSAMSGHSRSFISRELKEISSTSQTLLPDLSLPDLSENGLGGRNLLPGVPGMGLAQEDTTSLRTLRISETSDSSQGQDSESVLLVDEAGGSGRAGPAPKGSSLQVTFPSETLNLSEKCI
T4 sequence (P43116 whole entry): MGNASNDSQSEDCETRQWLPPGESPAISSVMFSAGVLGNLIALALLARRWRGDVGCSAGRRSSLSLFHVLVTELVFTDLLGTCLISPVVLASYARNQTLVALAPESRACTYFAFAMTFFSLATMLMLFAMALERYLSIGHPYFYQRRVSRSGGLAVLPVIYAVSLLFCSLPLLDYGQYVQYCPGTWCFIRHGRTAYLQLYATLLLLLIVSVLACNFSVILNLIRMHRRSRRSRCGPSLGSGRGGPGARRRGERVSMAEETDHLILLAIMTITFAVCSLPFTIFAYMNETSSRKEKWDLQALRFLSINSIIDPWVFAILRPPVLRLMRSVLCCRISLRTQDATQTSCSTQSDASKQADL
Chain of FP receptor (P43088 whole entry): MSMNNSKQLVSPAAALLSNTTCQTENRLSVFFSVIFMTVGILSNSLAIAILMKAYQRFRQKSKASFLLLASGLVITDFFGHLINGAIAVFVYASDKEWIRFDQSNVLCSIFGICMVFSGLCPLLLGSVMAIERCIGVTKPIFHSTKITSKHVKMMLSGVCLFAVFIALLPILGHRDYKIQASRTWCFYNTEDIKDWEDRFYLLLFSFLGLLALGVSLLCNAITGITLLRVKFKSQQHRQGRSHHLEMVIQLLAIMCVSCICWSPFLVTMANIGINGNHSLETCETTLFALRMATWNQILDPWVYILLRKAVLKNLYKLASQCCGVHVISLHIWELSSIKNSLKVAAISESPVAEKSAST
Chain of IP receptor (P43119 whole entry): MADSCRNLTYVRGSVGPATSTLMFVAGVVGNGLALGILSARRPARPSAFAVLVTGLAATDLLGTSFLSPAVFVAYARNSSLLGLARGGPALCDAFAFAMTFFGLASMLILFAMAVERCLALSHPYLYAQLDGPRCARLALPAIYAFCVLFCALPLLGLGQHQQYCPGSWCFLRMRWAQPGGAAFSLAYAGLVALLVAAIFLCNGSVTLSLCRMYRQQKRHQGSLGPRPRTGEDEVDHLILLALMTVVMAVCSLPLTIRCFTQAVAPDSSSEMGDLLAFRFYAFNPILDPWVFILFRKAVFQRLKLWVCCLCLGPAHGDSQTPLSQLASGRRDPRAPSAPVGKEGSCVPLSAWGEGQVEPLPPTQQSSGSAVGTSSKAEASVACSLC

As to `O=C1CCC(CCC(O)Cc2ccccc2)C1CCCCCCc1nnn[nH]1` (centres unmarked) [3-(3-hydroxy-4-phenyl-butyl)-2-(6-(1 H—tetrazol-5-yl)-hexyl)-cyclopentanone], the IC50 is greater than 3200 nM on IP receptor; greater than 3200 nM at EP1 receptor; greater than 3200 nM on DP receptor; greater than 3200 nM on EP3 receptor; 56 nM at EP2 receptor; greater than 3200 nM at FP receptor. On EP4 receptor, the half-inhibitory concentration (IC50) was 70 nM. Further, in the assay on osteopenic, OVX rats, the “restoration of bone mass to the OVX, osteopenic rat skeleton” value is on record as “completely restored the bone mass”. Moreover, in the assay on osteopenic, OVX rats (started 5 weeks post-OVX), the “increase in distal femoral metaphyseal BMC as compared with OVX controls” value is recorded as “+42%”. Moreover, in the assay with osteopenic, OVX rats (started 5 weeks post-OVX), the “increase in distal femoral metaphyseal BMC as compared with pre-treatment OVX controls” value is “+23%”. In addition, in the assay on osteopenic, OVX rats (started 5 weeks post-OVX), the “increase in distal femoral metaphyseal BMD as compared with OVX controls” value is given as “+28%”. For the same molecule, the “increase in distal femoral metaphyseal BMD as compared with pre-treatment OVX controls” value in the assay with osteopenic, OVX rats (started 5 weeks post-OVX) is “+17%”.

For the molecule `CS(=O)(=O)N(CCCCCCC(=O)O)CCOc1cc(Cl)cc(Cl)c1` [7-(2-(3,5-dichloro-phenoxy)-ethyl)-methanesulfonyl-amino)-heptanoic acid], at EP2 receptor, the IC50 stood at 17 nM.

With `O=C(O)CCCCCCN1C(=O)CCC1CCC(O)Cc1ccccc1` (centres unmarked) [7-(2-(3-hydroxy-4-phenyl-butyl)-5-oxo-pyrrolidin-1-yl)-heptanoic acid], the IC50 at EP4 receptor was 36 nM.
